Reference: patent EP3449978A1, “INHIBITORS OF ARYL HYDROCARBON RECEPTOR FOR TREATING SOFT-TISSUE SARCOMA AND PREVENTING NEUROFIBROMA GROWTH AND/OR TRANSFORMATION TO MALIGNANT PERIPHERAL NERVE SHEATH TUMORS” (UNIVERSITE PARIS DESCARTES, priority 2017, dated 2019)

Legend:
Format in all cases: cell-based, human
AhR [1] = assay: Quantitative RT-PCR of AhR target and cell death genes in 90-8 cells
Procedure: RT-qPCR were performed using primers recognizing specifically the genes indicated. […] The total RNA was then extracted from these cells. […] Quantitative real-time PCR experiments were performed using primers recognizing CYP1A1 and CYP1 B1. *p<0.05, **p<0.01, ***p<0.001 by students t-test. • B, Human MPNST cell line (90-8) was incubated with AhR antagonist CH-223191 (1, 5, 10, 50 and 100 µM) during 48h and 72h. […] E, Total RNA was extracted from 90-8 cell line. Quantitative real-time PCR experiments were performed using primers recognizing PUMA, GADD45 and IL1β. The RT-PCR was normalized using 26S RNA. Data represent the mean+/-SEM of at least 3 independent experiments. *p<0.05, **p<0.01, **p<0.001, by Student's t test.

STS26T cells = assay: Annexin V / PI flow cytometry in STS26T cells
Procedure: • Figure 1: AHR signaling pathway is activated in Dermal and Plexiform Neurofibromas, and MPNST. • A, Total RNA was isolated from patients having Dermal Neurofibromas (n=8), Plexiform Neurofibromas (n=16) and MPNST (n=14). RT-qPCR were performed using primers recognizing specifically the genes indicated. Table indicates median [range] mRNA levels. mRNA levels were normalized such that the median value of the dermal neurofibromas was 1. Kruskal Wallis H test was used to compare MPNST vs Plexiform Neurofibromas vs Dermal Neurofibromas. • B and B', Representative immunohistochemical study of AhR in a case of MPNST. Formalin fixed, paraffin embedded MPNST samples were stained with Hematoxylin-eosin-saffron (HES) and antibody recognizing AhR has been used to detect AhR. A strong nuclear AhR staining is detected in a proportion of tumor cells while intra-tumoral vessels (arrows) whereas fibroblasts in a fibrous septa (*) taken as internal negative controls are not stained. • Figure 2: AhR inhibition induced death of MPNST cell lines (STS26T) by apoptosis. • A, STS26T cell line was reverse transfected with either non-transfected (NT) or siRNA (10 nM). The total RNA was then extracted from these cells. Quantitative real-time PCR experiments were performed using primers recognizing AhR, AHRR, ARNT, CYP1A1 and CYP1 B1. *p<0.05, by non-parametric Student's t-test. • B, Flow cytometry has been conducted to determine the percentage of cell population of living cells, apoptotic cells, late apoptosis and dead. After 72h of medium change, cells are stained with Annexin and PI to detect the apoptosis and necrosis. Results represent the means +/- SEM of at least four independent experiments. *p<0.05, by non-parametric Student's t-test. • C, Total RNA was extracted from MPNST cell line STS26T treated either with TMF (10µM) and CH-223191 (50µM) or DMSO. Quantitative real-time PCR experiments were performed using primers recognizing CYP1A1, IL1β. The RT-PCR was normalized using TBP mRNA. Data represent the mean +/- SEM of at least 3 independent experiments. *p<0.05, by Student's t-test. • D, Human STS26T cell line was treated with either AHR antagonists CH-223191 (10µM and 50µM) or TMF (10µM) or DMSO. After 48h/72h of medium change, cells are stained with Annexin V and Propidium Iodide (PI) to detect apoptosis and necrosis. Flow cytometry has been conducted to determine the percentage of cell population of living cells (Annexin V-/PI-), apoptotic cells state (Annexin V+/PI-), late apoptosis state cells (Annexin V+/PI+) and dead cells (Annexin V-/PI+). […] Quantitative real-time PCR experiments were performed using primers recognizing CYP1A1 and CYP1 B1. *p<0.05, **p<0.01, ***p<0.001 by students t-test. • B, Human MPNST cell line (90-8) was incubated with AhR antagonist CH-223191 (1, 5, 10, 50 and 100 µM) during 48h and 72h. Cell viability was analyzed using WST1 assay. **p<.01, by Bonferroni's post hoc tests after two-way ANOVA when compared with DMSO. • C - D, Percentage of cell population of apoptotic (Annexin V+/PI-), dead (Annexin V-/PI+), necrotic (Annexin V+/PI+) and living (Annexin V-/PI-) cells were analyzed using flow cytometry. […] Quantitative real-time PCR experiments were performed using primers recognizing PUMA, GADD45 and IL1β. […]

AhR [2] = assay: Quantitative RT-PCR of AhR pathway genes in STS26T cells; settings: TMF 10µM, CH-223191 50µM, versus DMSO (Fig. 2C)
Procedure: • Figure 1: AHR signaling pathway is activated in Dermal and Plexiform Neurofibromas, and MPNST. • A, Total RNA was isolated from patients having Dermal Neurofibromas (n=8), Plexiform Neurofibromas (n=16) and […]=14). RT-qPCR were performed using primers recognizing specifically the genes indicated. […] Kruskal Wallis H test was used to compare MPNST vs Plexiform Neurofibromas vs Dermal Neurofibromas. • B and B', Representative immunohistochemical study of AhR in a case of MPNST. Formalin fixed, paraffin embedded MPNST samples were stained with Hematoxylin-eosin-saffron (HES) and antibody recognizing AhR has been used to detect AhR. A strong nuclear AhR staining is detected in a proportion of tumor cells while intra-tumoral vessels (arrows) whereas fibroblasts in a fibrous septa (*) taken as internal negative controls are not stained. • Figure 2: AhR inhibition induced death of MPNST cell lines (ST[…]) by apoptosis. • A, ST[…] cell line was reverse transfected with either non-transfected (NT) or siRNA (10 nM). The total RNA was then extracted from these cells. Quantitative real-time PCR experiments were performed using primers recognizing AhR, AHRR, ARNT, CYP1A1 and CYP1 B1. *p<0.05, by non-parametric Student's t-test. • B, Flow cytometry has been conducted to determine the percentage of cell population of living cells, apoptotic cells, late apoptosis and dead. […]

90-8 cells [3] = assay: In vitro cytotoxicity assay (WST1 assay) in 90-8 cells; settings: 50 µM, WST1 assay (Fig. 3B)
Procedure: 90-8 cells were seeded in triplicate on 96-well plates. Cells were treated with either CH-223191 or 0.1% DMSO. Cytotoxicity was quantified 48 and 72 hours after treatment using WST1 assay (Roche). Relative cytotoxicity was determined as ratio of absorbance at 450 nm of cells treated with CH-223191 versus cells treated with DMSO. IC50 values corresponding to concentrations associated to 50% of cell viability after 72 hours of continuous exposure were determined.

90-8 cells [4] = assay: Annexin V / PI flow cytometry in 90-8 cells; settings: 50µM, 48h and 72h, Annexin V and PI staining (Fig. 3C, 3D)
Procedure: • Figure 1: AHR signaling pathway is activated in Dermal and Plexiform Neurofibromas, and MPNST. • A, Total RNA was isolated from patients having Dermal Neurofibromas (n=8), Plexiform Neurofibromas (n=16) and MPNST (n=14). RT-qPCR were performed using primers recognizing specifically the genes indicated. Table indicates median [range] mRNA levels. mRNA levels were normalized such that the median value of the dermal neurofibromas was 1. Kruskal Wallis H test was used to compare MPNST vs Plexiform Neurofibromas vs Dermal Neurofibromas. • B and B', Representative immunohistochemical study of AhR in a case of MPNST. […] A strong nuclear AhR staining is detected in a proportion of tumor cells while intra-tumoral vessels (arrows) whereas fibroblasts in a fibrous septa (*) taken as internal negative controls are not stained. • Figure 2: AhR inhibition induced death of MPNST cell lines (STS26T) by apoptosis. • A, STS26T cell line was reverse transfected with either non-transfected (NT) or siRNA (10 nM). […] Quantitative real-time PCR experiments were performed using primers recognizing AhR, AHRR, ARNT, CYP1A1 and CYP1 B1. *p<0.05, by non-parametric Student's t-test. • B, Flow cytometry has been conducted to determine the percentage of cell population of living cells, apoptotic cells, late apoptosis and dead. […]

Row | Compound | expression of IL1β (AhR [1]; 90-8 cells (Fig. 3E)) | expression of PUMA and GADD45 genes (AhR [1]; 90-8 cells (Fig. 3E)) | expression of the classical AhR target genes: CYP1A1 and CYP1B1 (AhR [1]; 90-8 cells, 50 µM (Fig. 3A)) | cell death, apoptosis and necrosis (STS26T cells; STS26T, 50µM at 48h and 72h, Annexin V and PI staining (Fig. 2D)) | expression of AhR target gene: CYP1A (AhR [2]) | decreased 90-8 cell viability (90-8 cells [3]) [%] | number of dead cells, apoptosis and necrosis (90-8 cells [4]) | effect on STS26T cell death (STS26T cells; 10µM at 48h and 72h, compared with CH-223191) | cells necrotic (STS26T cells; STS26T, 10µM, 72h) [%] | cells underwent apoptosis (STS26T cells; STS26T, 10µM, 72h) [%] | decrease of cell viability (STS26T cells; STS26T, 10µM, 72h) [%]
1 | Cc1ccccc1N=Nc1ccc(NC(=O)c2ccnn2C)c(C)c1 [CH-223191] | reduced | enhanced | inhibited | increased cell death and enhanced apoptosis and necrosis | inhibited | 50 | increased the number of dead cells and enhanced apoptosis and necrosis |  |  |  | 
2 | COc1ccc(-c2cc(=O)c3cc(OC)ccc3o2)c(OC)c1 [TMF, 6,2',4',-trimethoxyflavone] |  |  |  |  | inhibited |  |  | more potent effect than CH-223191 | 30 | 20 | 50
